Data: patent publication EP0882016B1, “ALKYLATED STYRENES AS PRODRUGS TO COX-2 INHIBITORS” (Merck Frosst Canada & Co., priority 1996, dated 1997)

Columns and labels:
Rat Paw Edema = experiment: Rat paw edema assay (carrageenan); format: in vivo, Male Sprague-Dawley rats; settings: dose of prodrug, po, required to reduce edema formation by 50% as compared to the vehicle control
Protocol: Male Sprague-Dawley rats (150-200 g) are fasted overnight and are given, po, either vehicle (1% methocel or 5% Tween 80) or a test compound. One hr later, a line is drawn using a permanent marker at the level above the ankle in one hind paw to define the area of the paw to be monitored. The paw volume (V0) is measured using a plethysmometer (Ugo-Basile, Italy) based on the principle of water displacement. The animals are then injected subplantarly with 50 µl of 1% carrageenan solution in saline (FMC Corp, Maine) into the paw using an insulin syringe with a 25-gauge needle (i.e. 500 µg carrageenan per paw). Three hr later, the paw volume (V3) is measured and the increases in paw volume (V3 - VO) are calculated. The animals are sacrificed by CO2 asphyxiation and the absence or presence of stomach lesions scored. Data is compared with the vehicle-control values and percent inhibition calculated. All treatment groups are coded to eliminate observer bias.
Compounds of the present invention are prodrugs of inhibitors of COX-2 and are thereby useful in the treatment of COX-2 mediated diseases as enumerated above. The extent of conversion of these compounds to the active COX-2 inhibitors may be seen in the representative results shown in Table III along with their antiinflammatory activity. The plasma levels indicated are the maximum rat plasma concentrations of the active COX-2 inhibitor observed when the rat was treated with a 20 mg/kg oral dose of the indicated prodrug. The ED50 values in the rat paw edema assay represent the dose of prodrug required to reduce edema formation by 50% as compared to the vehicle control.

[1] = Rat plasma levels, per os pharmacokinetics in rats; format: in vivo, Male Sprague Dawley rats; settings: maximum rat plasma concentration of the active COX-2 inhibitor (corresponding carbonyl compound) after 20 mg/kg oral dose of the indicated prodrug
Source text: The animals are housed, fed and cared for according to the Guidelines of the Canadian Council on Animal Care.
Male Sprague Dawley rats (325-375 g) are fasted overnight prior to each PO blood level study.
The rats are placed in the restrainer one at a time and the box is firmly secured. The zero blood sample is obtained by nicking a small (1 mm or less) piece off the tip of the tail. The tail is then stroked with a firm but gentle motion from the top to the bottom to milk out the blood. Approximately 1 mL of blood is collected into a heparinized vacutainer tube.
Compounds are prepared as required, in a standard dosing volume of 10mL/kg, and administered orally by passing a 16 gauge, 3" gavaging needle into the stomach.
Subsequent bleeds are taken in the same manner as the zero bleed except that there is no need to nick the tail again. The tail is cleaned with a piece of gauze and milked/stroked as described above into the appropriately labelled tubes.
Immediately after sampling, blood is centrifuged, separated, put into clearly marked vials and stored in a freezer until analysed.
Typical time points for determination of rat blood levels after PO dosing are: 0, 15min, 30min, 1h, 2h, 4h, 6h
After the 4hr time point bleed, food is provided to the rats ad libitum. Water is provided at all times during the study.
The following vehicles may be used in PO rat blood level determinations:
Compounds for PO blood levels can be in suspension form. For better dissolution, the solution can be placed in a sonicator for approximately 5 minutes.
For analysis, aliquots are diluted with an equal volume of acetonitrile and centrifuged to remove protein precipitate. The supernatant is injected directly onto a C-18 HPLC column with UV detection. Quantitation is done relative to a clean blood sample spiked with a known quantity of drug. Bioavailability (F) is assessed by comparing area under the curve (AUC) i.v. versus p.o. F =(AUCpo)/(AUCiv)x(DOSEiv)/(DOSEpo)x 100% [formula] […]

Structure (SMILES) | Rat Paw Edema (ED50, mg/kg) (Rat Paw Edema) | Plasma Levels (µM)* [1]
CC(C)(O)/C(=C(\CO)c1cccc(F)c1)c1ccc(S(C)(=O)=O)cc1 [Example 1, 2-(3-Fluorophenyl)-4-methyl-3-(4-(methylsulfonyl)-phenyl)-2-(Z)-penten-1,4-diol] | 10 mg/kg | 3.5 µM
COC(C)(C)/C(=C(\C(=O)N(C)C)c1cccc(F)c1)c1ccc(S(C)(=O)=O)cc1 [Example 4, N,N-Dimethyl-2-(3-fluorophenyl)-4-methoxy-4-methyl-3-(4-(methylsulfonyl)phenyl)-2-(Z)-pentenamide] | 1.6 mg/kg | 10 µM
COC(=O)/C(=C(/c1ccc(S(C)(=O)=O)cc1)C(C)(C)OC)c1cccc(F)c1 [Example 6, Methyl 2-(3-fluorophenyl)-4-methoxy-4-methyl-3-(4-(methylsulfonyl)phenyl)-2-(Z)-pentenoate] | 2.1 mg/kg | 6 µM
